Source: US10508077B2 (FORMA Therapeutics, Inc., priority 2015, dated 2019)

Target: T1, Full length human recombinant HDAC8 protein (Homo sapiens, UniProt Q9BY41)
T1 construct: Full length human recombinant HDAC8 protein was expressed in baculoviral system; made in house
T1 sequence (Q9BY41 1-377): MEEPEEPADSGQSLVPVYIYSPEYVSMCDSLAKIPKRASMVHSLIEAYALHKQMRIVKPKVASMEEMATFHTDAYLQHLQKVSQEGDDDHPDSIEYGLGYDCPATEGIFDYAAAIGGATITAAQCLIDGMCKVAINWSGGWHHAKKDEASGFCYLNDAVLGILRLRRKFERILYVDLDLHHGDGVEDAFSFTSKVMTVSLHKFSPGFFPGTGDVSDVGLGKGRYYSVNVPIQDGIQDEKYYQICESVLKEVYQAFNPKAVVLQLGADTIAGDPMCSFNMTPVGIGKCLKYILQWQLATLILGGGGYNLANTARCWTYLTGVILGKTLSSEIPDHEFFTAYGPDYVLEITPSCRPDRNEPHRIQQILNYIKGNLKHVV
Assay: In vitro histone deacetylase assay: enzymatic HDAC8 assay, electrophoretic mobility shift
Type: biochemical
Details: substrate RHKK(Ac)-NH2, 1 nM enzyme, compounds listed under IC50 range headings
How it was run: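 Readout was microfluidic mobility-shift separation of deacetylated product from fluorescent RHKK(Ac)-NH2 substrate (2 µM), after reaction with 1 nM recombinant full-length human HDAC8 at 25 °C, pH 7.5, stopped with SDS. Twelve 3-fold-spaced concentrations tested; product/sum ratios normalized to controls and fitted with a 4-parameter model for IC50.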

Molecule O=C(/C=C/c1ccccc1N1CCN(Cc2ccccc2C(F)(F)F)CC1)NO [Example I-174, (E)-N-hydroxy-3-(2-(4-(2-(trifluoromethyl)benzyl)piperazin-1-yl)phenyl)acrylamide] has an IC50 of less than 1000 nM.
In the case of O=C(/C=C/c1ccccc1N1CCN(Cc2cc3c(cc2Cl)OCO3)CC1)NO [Example I-175, (E)-3-(2-(4-((6-chlorobenzo[d][1,3]dioxol-5-yl)methyl)piperazin-1-yl)phenyl)-N-hydroxyacrylamide], the IC50 is reported as less than 1000 nM.
For O=C(/C=C/c1ccccc1N1CCN(Cc2ccccc2OC(F)F)CC1)NO [Example I-176, (E)-3-(2-(4-(2-(difluoromethoxy)benzyl)piperazin-1-yl)phenyl)-N-hydroxyacrylamide], the IC50 was less than 1000 nM.
Work on CCCCN1CCN(c2ccccc2/C=C/C(=O)NO)CC1 [Example I-177, (E)-3-(2-(4-butylpiperazin-1-yl)phenyl)-N-hydroxyacrylamide] yielded an IC50 of less than 1000 nM.
CCCCCCN1CCN(c2ccccc2/C=C/C(=O)NO)CC1 [Example I-178, (E)-3-(2-(4-hexylpiperazin-1-yl)phenyl)-N-hydroxyacrylamide] showed an IC50 of less than 1000 nM.
In the case of Cn1ccnc1CN1CCN(c2ccccc2/C=C/C(=O)NO)CC1 [Example I-181, (E)-N-hydroxy-3-(2-(4-((1-methyl-1H-imidazol-2-yl)methyl)piperazin-1-yl)phenyl)acrylamide], the IC50 is reported as less than 1000 nM.
O=C(/C=C/c1ccccc1N1CCN(CCCC(F)(F)F)CC1)NO [Example I-184, (E)-N-hydroxy-3-(2-(4-(4,4,4-trifluorobutyl)piperazin-1-yl)phenyl)acrylamide] showed an IC50 of less than 1000 nM.
For Cc1csc(CN2CCN(c3ccccc3/C=C/C(=O)NO)CC2)n1 [Example I-185, (E)-N-hydroxy-3-(2-(4-((4-methylthiazol-2-yl)methyl)piperazin-1-yl)phenyl)acrylamide], the IC50 was less than 1000 nM.
CN(C)CC1(CN2CCN(c3ccccc3/C=C/C(=O)NO)CC2)CCCC1 [Example I-186, (E)-3-(2-(4-((1-((dimethylamino)methyl)cyclopentyl)methyl)piperazin-1-yl)phenyl)-N-hydroxyacrylamide] gave an IC50 of less than 1000 nM.
CN1CCC(C)(CN2CCN(c3ccccc3/C=C/C(=O)NO)CC2)CC1 [Example I-187, (E)-3-(2-(4-((1,4-dimethylpiperidin-4-yl)methyl)piperazin-1-yl)phenyl)-N-hydroxyacrylamide] showed an IC50 of less than 1000 nM.
Work on O=C(/C=C/c1ccccc1N1CCN(Cc2cn3ccccc3n2)CC1)NO [Example I-188, (E)-N-hydroxy-3-(2-(4-(imidazo[1,2-a]pyridin-2-ylmethyl)piperazin-1-yl)phenyl)acrylamide] yielded an IC50 of less than 1000 nM.
O=C(/C=C/c1ccccc1N1CCN(Cc2nc3ccccc3s2)CC1)NO [Example I-189, (E)-3-(2-(4-(benzo[d]thiazol-2-ylmethyl)piperazin-1-yl)phenyl)-N-hydroxyacrylamide] gave an IC50 of less than 1000 nM.
O=C(/C=C/c1ccccc1N1CCC(NCc2nccs2)CC1)NO [Example I-190, (E)-N-hydroxy-3-(2-(4-((thiazol-2-ylmethyl)amino)piperidin-1-yl)phenyl)acrylamide] was tested, and the IC50 was less than 1000 nM.
In the case of O=C(/C=C/c1ccccc1N1CCC(NCc2ccccc2OC(F)F)CC1)NO [Example I-191, (E)-3-(2-(4-((2-(difluoromethoxy)benzyl)amino)piperidin-1-yl)phenyl)-N-hydroxyacrylamide], the IC50 is reported as less than 1000 nM.
With O=C(/C=C/c1ccccc1N1CCC(NCc2nc3ccccc3s2)CC1)NO [Example I-192, (E)-3-(2-(4-((benzo[d]thiazol-2-ylmethyl)amino)piperidin-1-yl)phenyl)-N-hydroxyacrylamide] the IC50 was less than 1000 nM.
Molecule CC(=O)N1CCN(c2ccccc2/C=C/C(=O)NO)CC1 [Example I-193, (E)-3-(2-(4-actylpiperazin-1-yl)phenyl)-N-hydroxyacrylamide] has an IC50 of less than 1000 nM.
For CSCC(=O)N1CCN(c2ccccc2/C=C/C(=O)NO)CC1 [Example I-194, (E)-N-hydroxy-3-(2-(4-(2-(methylthio)acetyl)piper-azin-1-yl)phenyl)acrylamide], the IC50 was less than 1000 nM.
COc1ccc(CC(=O)N2CCN(c3ccccc3/C=C/C(=O)NO)CC2)cc1 [Example I-195, (E)-N-hydroxy-3-(2-(4-(2-(4-methoxyphenyl)acetyl)pi-perazin-1-yl)phenyl)acrylamide] gave an IC50 of less than 1000 nM.
O=C(/C=C/c1ccccc1N1CCN(C(=O)Cc2cccs2)CC1)NO [Example I-196, (E)-N-hydroxy-3-(2-(4-(2-(thiophen-2-yl)acetyl)piperazin-1-yl)phenyl)acrylamide] gave an IC50 of less than 1000 nM.
CCSCC(=O)N1CCN(c2ccccc2/C=C/C(=O)NO)CC1 [Example I-197, (E)-3-(2-(4-(2-(ethylthio)acetyl)pipera-zin-1-yl)phenyl)-N-hydroxyacrylamide] was tested, and the IC50 was less than 1000 nM.
Cc1cc(C(=O)N2CCN(c3ccccc3/C=C/C(=O)NO)CC2)n[nH]1 [Example I-198, (E)-N-hydroxy-3-(2-(4-(5-methyl-1H-pyrazole-3-carbonyl)piperazin-1-yl)phenyl)acrylamide] showed an IC50 of less than 1000 nM.
Cn1cncc1C(=O)N1CCN(c2ccccc2/C=C/C(=O)NO)CC1 [Example I-199, (E)-N-hydroxy-3-(2-(4-(1-methyl-1H-imidazole-5-carbonyl)piperazin-1-yl)phenyl)acrylamide] showed an IC50 of less than 1000 nM.
With CS(=O)(=O)CCCC(=O)N1CCN(c2ccccc2/C=C/C(=O)NO)CC1 [Example I-201, (E)-N-hydroxy-3-(2-(4-(4-(methylsulfonyl)butanoyl)piperazin-1-yl)phenyl)acrylamide] the IC50 was less than 1000 nM.
O=C(/C=C/c1ccccc1N1CCN(C(=O)c2ccc(F)cn2)CC1)NO [Example I-202, (E)-3-(2-(4-(5-fluoropicolinoyl)piperazin-1-yl)phenyl)-N-hydroxyacrylamide] was tested, and the IC50 was less than 1000 nM.
COc1cc(CC(=O)N2CCN(c3ccccc3/C=C/C(=O)NO)CC2)ccc1O [Example I-203, (E)-N-hydroxy-3-(2-(4-(2-(4-hydroxy-3-methoxyphenyl)acetyl)piperazin-1-yl)phenyl)acrylamide] showed an IC50 of less than 1000 nM.
For O=C(/C=C/c1ccccc1N1CCN(C(=O)C2CC(F)(F)C2)CC1)NO [Example I-205, (E)-3-(2-(4-(3,3-difluorocyclobutane-1-carbonyl)piperazin-1-yl)phenyl)-N-hydroxyacrylamide], the IC50 was less than 1000 nM.
O=C(/C=C/c1ccccc1N1CCN(C(=O)c2ccc3c(c2)OCO3)CC1)NO [Example I-207, (E)-3-(2-(4-(benzo[d][1,3]dioxole-5-carbonyl)piperazin-1-yl)phenyl)-N-hydroxyacrylamide] showed an IC50 of less than 1000 nM.
With CN1CCCC(C(=O)N2CCN(c3ccccc3/C=C/C(=O)NO)CC2)C1 (stereo not shown) [Example I-209, (E)-N-hydroxy-3-(2-(4-(1-methylpiperidine-3-carbonyl)piperazin-1-yl)phenyl)acrylamide] the IC50 was less than 1000 nM.
For O=C(/C=C/c1ccccc1N1CCN(C(=O)Cc2ccc(Cl)cc2)CC1)NO [Example I-210, (E)-3-(2-(4-(2-(4-chlorophenyl)acetyl)piper-azin-1-yl)phenyl)-N-hydroxyacrylamide], the IC50 was less than 1000 nM.
With Cc1nc(CC(=O)N2CCN(c3ccccc3/C=C/C(=O)NO)CC2)c(C)s1 [Example I-211] the IC50 was less than 1000 nM.
Molecule O=C(/C=C/c1ccccc1N1CCN(C(=O)c2ccc(OC(F)F)cc2)CC1)NO [Example I-212, (E)-3-(2-(4-(4-(difluoromethoxy)benzoyl)piperazin-1-yl)phenyl)-N-hydroxyacrylamide] has an IC50 of less than 1000 nM.
